Reference: patent publication US11452292B2, “Biofilm inhibitor and method of inhibiting biofilm” (NDSU Research Foundation, priority 2017, dated 2022)
In brackets after ≈: the same amount, converted by molar mass. Where two headings read alike, the source gives them in different places.

Legend:
E. coli O157:H7 [1] = experiment: Biofilm amounts in liquid beef broth at 10° C.; assay type: cell-based; settings: for effect on bacterial cell counts and biofilm amounts: E. coli O157:H7 grown in liquid beef broth at 10° C.; for IC50: Escherichia coli, read-out: IC50 biofilm
E. coli O157:H7 [2] = experiment: Bacterial cell number in liquid beef broth at 10° C.; assay type: cell-based; settings: Escherichia coli, read-out: IC50 cell number
E. coli K-12 [3] = experiment: Biofilm, supplement/control, TB medium; assay type: cell-based
flhD [4] = experiment: flhD, supplement/control, TB medium; assay type: cell-based, E. coli K-12
E. coli K-12 [5] = assay type: cell-based
C. sakazakii [6] = experiment: Planktonic growth (maximal velocity of OD600) in TSB; assay type: cell-based; settings: Cronobacter sakazakii, 37° C.
Protocol: (§1) The IC50 values were calculated using […] software (Hitachi Solutions, San Bruno, Calif.).

S. marcescens [7] = experiment: as above; assay type: cell-based; settings: Serratia marcescens, 30° C.
Protocol: as §1

C. sakazakii [8] = experiment: Biofilm amounts, CV assay, 24-well polystyrene plate; assay type: cell-based; settings: Cronobacter sakazakii, 37° C.
Description: (§2) Data were expressed as OD600.

S. marcescens [9] = experiment: as above; assay type: cell-based; settings: Serratia marcescens, 30° C.
Description: as §2

C. sakazakii [10] = experiment: Biofilm amounts, ATP assay, 24-well polystyrene plate; assay type: cell-based; settings: Cronobacter sakazakii, 37° C.
S. marcescens [11] = experiment: as above; assay type: cell-based; settings: Serratia marcescens, 30° C.
Y. enterocolitica [12] = experiment: Planktonic growth (maximal velocity of OD600) in TSB; assay type: cell-based, Yersinia enterocolitica; settings: Yersinia enterocolitica, Y. enterocolitica, 37° C.
Protocol: as §1

Y. enterocolitica [13] = experiment: Biofilm amounts, CV assay, 24-well polystyrene plate; assay type: cell-based, Yersinia enterocolitica; settings: Yersinia enterocolitica, Y. enterocolitica
Description: as §2

Y. enterocolitica [14] = experiment: Biofilm amounts, ATP assay, 24-well polystyrene plate; assay type: cell-based, Yersinia enterocolitica; settings: Yersinia enterocolitica, Y. enterocolitica
Y. enterocolitica [15] = experiment: Motility assay on motility plates; assay type: cell-based, Yersinia enterocolitica; settings: 5 mg/ml of AAA, 25° C., semi solid tryptone broth agar plates
flhD [16] = experiment: qPCR of mRNA transcript in response to AAA; settings: 5 mg/ml AAA; biofilm associated and planktonic bacteria, 25 and 37° C.
virF = experiment: qPCR of mRNA transcript in response to AAA; settings: 5 mg/ml AAA; biofilm, both temperatures
ymoA = experiment: qPCR of mRNA transcript in response to AAA; settings: 5 mg/ml AAA
yadA = experiment: qPCR of mRNA transcript in response to AAA; settings: 5 mg/ml AAA
C. sakazakii [17] = experiment: Growth and biofilm assays taken together (growth, CV, ATP); settings: Cronobacter sakazakii, read-out: IC50 values, range over growth, CV and ATP assays
S. marcescens [18] = experiment: as above; settings: Serratia marcescens, read-out: IC50 values, range over growth, CV and ATP assays
Y. enterocolitica [19] = experiment: as above; settings: Yersinia enterocolitica, read-out: IC50 values, range over growth, CV and ATP assays
S. aureus = experiment: Biofilm amounts on PEA containing polyurethane relative to plain polyurethane; assay type: cell-based, Staphylococcus aureus; settings: 5 wt. % PEA in polyurethane vs 0% PEA
Description: The instant inventors modified a material that is commonly used in clinical and food processing contexts, polyurethane, with β-phenylethylamine (PEA). To produce the PEA containing polyurethane (PU-PEA), food grade polyurethane (Zythane 7085A™) was impregnated with 0, 2.5, 5.0, and 10.0 weight percent PEA and a heat-melt extruded. At 10 wt. %, PEA formed aggregates and was not anymore uniformly distributed throughout the material (FIG. 17).
The biofilm inhibiting efficacy of 5 wt. % PEA was then tested against six bacterial strains (FIG. 18). E. coli AJW is non-pathogenic and was described as a good former of biofilm, P. aeruginosa is a pathogen that was described as a contaminant on conveyor belts, but also forms biofilm on urinary catheters. S. aureus causes staph infections and can form biofilm in intravenous catheters, E. coli O157:H7 has been studied in multiple foods and on numerous food processing surfaces, and the two E. coli UPEC strains are uropathogens that are commonly found on catheters. PU/PEA had reduced biofilm amounts relative to plain polyurethane for all strains tested. Reductions varied between 5 and 80% in depending on the bacterial pathogen. In particular, this initial PU-PEA material was able to reduce Staphylococcus aureus biofilm by 80% and biofilm of several other bacterial pathogens by 20 to 50%.

bacteria = experiment: Live/dead assay with fluorescence dyes; assay type: cell-based; settings: live/dead staining, preliminary data
Protocol: To determine whether the bacteria were being adversely affected by PEA, a live/dead assay was performed where the total bacterial population and the population of dead bacteria were stained with different fluorescence dyes. […] This supports the argument that the bacterial nutrients reduce biofilm amounts without killing the bacteria, therefore, reducing the likelihood of the development of resistance.

NC(=O)C[C@@H](N)C(=O)O [D-asparagine]
effect on bacterial cell counts and biofilm amounts (E. coli O157:H7 [1]): inhibit bacterial cell counts and biofilm amounts | IC50 (E. coli O157:H7 [1]): 0.2 mg/mL (≈ 1.51 mM) | IC50 (E. coli O157:H7 [2]): 0.62 mg/mL (≈ 4.69 mM) | Ratio, biofilm (supplement/control) (E. coli K-12 [3]): 1.07 | Ratio, flhD (supplement/control) (flhD [4]): 1.2 | Ratio, growth (supplement/control) (E. coli K-12 [5]): 0.9

N[C@@H]1C(O)O[C@H](CO)[C@@H](O)[C@@H]1O (stereo partly drawn) [D-mannosamine]
effect on bacterial cell counts and biofilm amounts (E. coli O157:H7 [1]): inhibit bacterial cell counts and biofilm amounts

CC(=O)CC(=O)O [AAA, acetoacetate]
IC50 (C. sakazakii [6]): 20 mg/mL (≈ 196 mM) | IC50 (S. marcescens [7]): 29 mg/mL (≈ 284 mM) | IC50 (C. sakazakii [8]): 22 mg/mL (≈ 215 mM) | IC50 (S. marcescens [9]): 35 mg/mL (≈ 343 mM) | IC50 (C. sakazakii [10]): 24 mg/mL (≈ 235 mM) | IC50 (S. marcescens [11]): 24 mg/mL (≈ 235 mM) | IC50 (Y. enterocolitica [12]): 11 mg/mL (≈ 108 mM) | IC50 (Y. enterocolitica [13]; 25° C.): 26 mg/mL (≈ 255 mM) | IC50 (Y. enterocolitica [13]; 37° C.): 14 mg/mL (≈ 137 mM) | IC50 (Y. enterocolitica [14]; 25° C.): 18 mg/mL (≈ 176 mM) | IC50 (Y. enterocolitica [14]; 37° C.): 12 mg/mL (≈ 118 mM) | motility in the presence of AAA (Y. enterocolitica [15]): about 0.25 mm/h | reduction of mRNA levels of flhD (flhD [16]): approximately 5 fold | reduction of virF transcript (virF): about 3 fold | effect of AAA on ymoA transcription (ymoA): no effect | reduction of mRNA levels for yadA (yadA; biofilm bound bacteria at 25° C.): ~10 fold | reduction of mRNA levels for yadA (yadA; planktonic bacteria at 37° C.): approximately 20 fold | IC50 (C. sakazakii [17]): 20 to 24 mg/mL (≈ 196 to 235 mM) | IC50 (S. marcescens [18]): 24 to 35 mg/mL (≈ 235 to 343 mM) | IC50 (Y. enterocolitica [19]): 11 to 14 mg/mL (≈ 108 to 137 mM)

O=P(O)(O)OCC(O)CO (racemic) [D,L-glycerol phosphate]
effect on bacterial cell counts and biofilm amounts (E. coli O157:H7 [1]): inhibit bacterial cell counts and biofilm amounts

CCCCCCC(N)C(=O)O (racemic) [D,L-α-aminocaprylic acid]
effect on bacterial cell counts and biofilm amounts (E. coli O157:H7 [1]): inhibit bacterial cell counts and biofilm amounts | IC50 (E. coli O157:H7 [1]): 1.84 mg/mL (≈ 11.6 mM) | IC50 (E. coli O157:H7 [2]): 1.96 mg/mL (≈ 12.3 mM) | Ratio, biofilm (supplement/control) (E. coli K-12 [3]): 0.85 | Ratio, flhD (supplement/control) (flhD [4]): 0.55 | Ratio, growth (supplement/control) (E. coli K-12 [5]): 0.26

NCCc1ccccc1 [PEA, β-phenylethylamine]
reduction of Staphylococcus aureus biofilm (S. aureus): 80% | viability of the bacteria (bacteria): not impacted | effect on bacterial cell counts and biofilm amounts (E. coli O157:H7 [1]): inhibit bacterial cell counts and biofilm amounts | IC50 (E. coli O157:H7 [1]): 0.34 mg/mL (≈ 2.81 mM) | IC50 (E. coli O157:H7 [2]): 0.32 mg/mL (≈ 2.64 mM) | Ratio, biofilm (supplement/control) (E. coli K-12 [3]): 1.1 | Ratio, flhD (supplement/control) (flhD [4]): 1.3 | Ratio, growth (supplement/control) (E. coli K-12 [5]): 0.81

CCC(=O)C(=O)O [α-keto-butyric acid]
effect on growth and biofilm amounts (E. coli K-12 [3]): inhibitors of growth and biofilm amounts | Ratio, biofilm (supplement/control) (E. coli K-12 [3]; E. coli K-12, TB, 25° C.): 0.62 | Ratio, flhD (supplement/control) (flhD [4]; E. coli K-12, TB, 25° C.): 0.57 | Ratio, growth (supplement/control) (E. coli K-12 [5]; E. coli K-12, TB, 25° C.): 0.54

O=C[C@H](O)[C@H](O)[C@@H](O)CO [L-lyxose]
effect on bacterial cell counts and biofilm amounts (E. coli O157:H7 [1]): inhibit bacterial cell counts and biofilm amounts | IC50 (E. coli O157:H7 [1]): 76 mg/mL (≈ 506 mM) | IC50 (E. coli O157:H7 [2]): 72 mg/mL (≈ 480 mM) | Ratio, biofilm (supplement/control) (E. coli K-12 [3]): 0.71 | Ratio, flhD (supplement/control) (flhD [4]): 0.68 | Ratio, growth (supplement/control) (E. coli K-12 [5]): 0.98

Cc1c[nH]c(=O)[nH]c1=O [thymine]
effect on bacterial cell counts and biofilm amounts (E. coli O157:H7 [1]): inhibit bacterial cell counts and biofilm amounts

O=C[C@H](O)[C@@H](O)[C@H](O)CO [D-xylose]
effect on growth and biofilm amounts (E. coli K-12 [3]): inhibitors of growth and biofilm amounts | Ratio, biofilm (supplement/control) (E. coli K-12 [3]; E. coli K-12, TB, 25° C.): 0.59 | Ratio, flhD (supplement/control) (flhD [4]; E. coli K-12, TB, 25° C.): 0.56 | Ratio, growth (supplement/control) (E. coli K-12 [5]; E. coli K-12, TB, 25° C.): 0.91
